Experimental data reported in patent publication US4755524A, “Novel phenolic thioethers as inhibitors of 5-lipoxygenase” (G. D. Searle & Co., priority 1987, dated 1988).
Counter-ions that a name gives are not always drawn.

Experiments:
[1] = tested on: OA-induced bronchoconstriction in the Guinea Pig; test: In vivo inhibition of ovalbumin-induced bronchoconstriction - Anti-allergy assay
From the text: (2) In vivo inhibition of ovalbumin-induced bronchoconstriction-Anti-allergy assay.
Adult, male Hartley guinea pigs (300-350 g, fasted) actively sensitized to ovalbumin are utilized in this assay.
Ovalbumin (OA) causes bronchoconstriction when administered to actively-sensitized guinea pigs. The observed bronchoconstriction is comprised of at least two distinct components:
(a) a cyclooxygenase-dependent, rapidly occurring bronchoconstriction mediated by thromboxane A2 and possibly other mediators and
(b) a 5-lipoxygenase dependent slow developing component, dependent upon the de novo generation of LTC4 and LTD4.
All test animals are pretreated with aspirin and pyrilamine to block the occurrence of the rapidly occurring component (a). Compounds which block the generation of LTC4 and LTD4 (5-lipoxygenase inhibitors) or antagonize the activity of LTC4 /LTD4 (leukotriene inhibitors) modulate the severity of the remaining component of this well-characterized anaphylactic response.
Test compounds are administered at screening doses of 50 mg/kg, i.v., or 100 mg/kg, i.g. A compound is rated active in this test if it causes a significant reduction (i.e., p 0.05, student's t-test) in intratracheal insufflation pressure induced by an i.v. injection of ovalbumin (3 mg/ml, i.v.), aspirin (5 mg/kg, i.v.) and propanolol (6 mg/kg i.p.). Treated animals are statistically compared to concurrent vehicle treated controls. Compounds rated active in inhibiting the production of the LTC4 /LTD4 allergic mediators through inhibition of 5-lipoxygenase according to this test are believed to play a significant role in bronchopulmonary allergic conditions, e.g., asthma.

5-lipoxygenase = molecular target: T1, 5-lipoxygenase (Rattus norvegicus, UniProt P12527); test: Inhibition of 5-lipoxygenase, in vitro; assay type: biochemical; conditions: 100,000×g supernatant of RBL-1 homogenate, 14C-arachidonic acid, 5-HETE measured
T1 construct: supernatant fraction of Rat Basophilic Leukemia Cell Homogenate (RBL-1) serves as a 5-lipoxygenase enzyme source; endogenous in cells; host or cells: RBL-1 (rat basophilic leukemia) cells, 100,000×g supernatant of homogenate
T1 sequence (P12527 1-673): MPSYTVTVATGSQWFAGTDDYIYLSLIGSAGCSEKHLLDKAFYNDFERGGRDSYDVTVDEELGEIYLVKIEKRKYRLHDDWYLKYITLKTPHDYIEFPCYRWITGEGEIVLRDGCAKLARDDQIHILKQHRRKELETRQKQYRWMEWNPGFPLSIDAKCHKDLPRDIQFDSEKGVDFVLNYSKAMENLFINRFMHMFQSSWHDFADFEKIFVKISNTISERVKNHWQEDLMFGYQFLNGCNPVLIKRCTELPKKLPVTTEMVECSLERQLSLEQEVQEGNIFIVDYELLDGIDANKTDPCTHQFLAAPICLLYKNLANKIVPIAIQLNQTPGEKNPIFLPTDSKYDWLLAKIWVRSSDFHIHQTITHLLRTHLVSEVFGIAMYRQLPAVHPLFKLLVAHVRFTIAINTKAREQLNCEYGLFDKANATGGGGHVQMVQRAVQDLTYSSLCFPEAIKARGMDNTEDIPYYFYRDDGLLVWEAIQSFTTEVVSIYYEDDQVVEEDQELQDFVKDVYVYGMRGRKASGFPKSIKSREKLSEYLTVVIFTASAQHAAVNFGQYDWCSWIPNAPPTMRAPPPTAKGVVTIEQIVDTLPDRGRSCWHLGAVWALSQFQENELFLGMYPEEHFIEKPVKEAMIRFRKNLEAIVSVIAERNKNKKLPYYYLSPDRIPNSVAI
Experimental: The compounds of the invention are evaluated with respect to 5-lipoxygenaseinhibition according to the following assay procedures.
(1) Inhibition of 5-lipoxygenase, in vitro: anti-inflammatory, anti-allergyactivities.
The 100,000×g supernatant fraction of Rat Basophilic Leukemia Cell Homogenate (RBL-1) serves as a 5-lipoxygenase enzyme source. The enzyme is incubated with [(1-^14 C)-arachidonic acid and Ca++ in the presence and absence of test compound. The product of 5-lipoxygenase, 5-hydroxyeicosatetraenoic acid (5-HETE), is separated by thin-layer chromatography and measured by radioactivity. A compound inhibiting 5-HETE synthesis by 30% or more is considered active at that concentration.

[2] = more potent than histamine; cited from earlier work
[3] = i.g. @ 3 hr., vehicle 2 (peanut oil)
[4] = i.g. @ 3 hr., vehicle 1 (20% DMSO in polyethylene glycol)

| SMILES | IC50 (5-lipoxygenase) [nM] | Antagonism of OA-induced bronchoconstriction in the Guinea Pig (min. effective dose) [1, 3] [mg/kg] | further results |
| --- | --- | --- | --- |
| CC(C)(C)c1cc(SCCSCC(=O)O)cc(C(C)(C)C)c1O [Example 3, [[2-[[3,5-bis(1,1-dimethylethyl)-4-hydroxyphenyl]thio]ethyl]thio]acetic acid, monosodium salt] | – | – | Antagonism of OA-induced bronchoconstriction in the Guinea Pig (min. effective dose) ([1]; i.g. @ 3 hr., vehicle 1 (20% DMSO in polyethylene glycol), monosodium salt): 100 mg/kg |
| CC(C)(C)c1cc(SCCSCC(=O)O)cc(C(C)(C)C)c1O [Example 4, [[2-[[3,5-bis(1,1-dimethylethyl)-4-hydroxyphenyl]thio]ethyl]thio]acetic acid] | 1400 | 100 | – |
| CC(C)(C)c1cc(SCCSCC(=O)O)cc(C(C)(C)C)c1O [Example 6, [[2-[[3,5-bis(1,1-dimethylethyl)-4-hydroxyphenyl]thio]ethyl]thio]acetic acid, 2,2',2"nitrilotris[ethanol] salt] | 1800 | – | Antagonism of OA-induced bronchoconstriction in the Guinea Pig (min. effective dose) [1, 4]: 50 mg/kg |
| COC(=O)CSCCSc1cc(C(C)(C)C)c(O)c(C(C)(C)C)c1 [Example 8, methyl[[2-[[3,5-bis(1,1-dimethylethyl)-4-hydroxyphenyl]thio]ethyl]thio]acetate] | – | – | Antagonism of OA-induced bronchoconstriction in the Guinea Pig (min. effective dose) [1, 4]: 100 mg/kg |
| CCOC(=O)C[S+]([O-])CCSc1cc(C(C)(C)C)c(O)c(C(C)(C)C)c1 (centres unmarked) [Example 12, ethyl[[2-[[3,5-bis(1,1-dimethylethyl)-4-hydroxyphenyl]thio]ethyl]sulfinyl]acetate] | 330 | – | – |
| CC(C)(C)c1cc(SCCSCCC(=O)O)cc(C(C)(C)C)c1O [Example 13, 3-[[2-[[3,5-bis(1,1-dimethylethyl)-4-hydroxyphenyl]thio]ethyl]thio]propanoic acid] | 1000 | – | Antagonism of OA-induced bronchoconstriction in the Guinea Pig (min. effective dose) ([1]; i.g. @ 5 hr., vehicle 2 (peanut oil)): 100 mg/kg |
| COC(=O)CCCSCCSc1cc(C(C)(C)C)c(O)c(C(C)(C)C)c1 [Example 15, methyl 4-[[2-[[3,5-bis(1,1-dimethylethyl)-4-hydroxyphenyl]thio]ethyl]thio]butanoate] | 120 | – | – |
| CCCCC/C=C\C\C=C/C=C/C=C/[C@@H](SC[C@H](NC(=O)CC[C@H](N)C(=O)O)C(=O)NCC(=O)O)[C@@H](O)CCCC(=O)O [LTC4] | – | – | potency relative to histamine in causing long lasting bronchoconstricting effects [2]: at least 100 times |

Second part, led by results:

| IC50 (5-lipoxygenase) [nM] | SMILES | Antagonism of OA-induced bronchoconstriction in the Guinea Pig (min. effective dose) [1, 3] [mg/kg] | further results |
| --- | --- | --- | --- |
| 300 | CCOC(=O)CS(=O)(=O)CCSc1cc(C(C)(C)C)c(O)c(C(C)(C)C)c1 [Example 17, ethyl[[2-[[3,5-bis(1,1-dimethylethyl)-4-hydroxyphenyl]thio]ethyl]sulfonyl]acetate] | – | – |
| 240 | COC(=O)CSC(C)C(C)Sc1cc(C(C)(C)C)c(O)c(C(C)(C)C)c1 (centres unmarked) [Example 19, methyl[[2-[[3,5-bis(1,1-dimethylethyl)-4-hydroxyphenyl]thio]-1-methylpropyl]thio]acetate] | 32 | – |
| 820 | CC(SCC(=O)O)C(C)Sc1cc(C(C)(C)C)c(O)c(C(C)(C)C)c1 (centres unmarked) [Example 20, [[2-[[3,5-bis(1,1-dimethylethyl)-4-hydroxyphenyl]thio]-1-methylpropyl]thio]acetic acid] | 32 | – |
| 7300 | CC(C)(C)c1cc(SCCOCC(=O)O)cc(C(C)(C)C)c1O [Example 31, [2-[[3,5-bis(1,1-dimethylethyl)-4-hydroxyphenyl]thio]ethoxy]acetic acid] | – | – |
| ~100000 | Cc1cc(SCCSCC(=O)O)ccc1O [Example 34, [[2-[(4-hydroxy-3-methylphenyl)thio]ethyl]thio]acetic acid, reference compound] | 100 | – |
| 55000 | O=C(O)CSCCSc1ccc(O)cc1 [Example 37, [[2-[(4-hydroxyphenyl)thio]ethyl]thio]acetic acid, reference compound] | 100 | – |
| 310 | COC(=O)CSCC(O)CSc1cc(C(C)(C)C)c(O)c(C(C)(C)C)c1 (centres unmarked) [Example 42, methyl[[3-[[3,5-bis(1,1-dimethylethyl)-4-hydroxyphenyl]thio]-2-hydroxypropyl]thio]acetate] | – | Antagonism of OA-induced bronchoconstriction in the Guinea Pig (min. effective dose) ([1]; i.g. @ 2 hr., vehicle 1 (20% DMSO in polyethylene glycol)): 50 mg/kg |
